In US11702479B2, “Anti-jagged antibodies and methods of use” (Genentech, Inc., priority 2012, dated 2023):

System: Jagged1-induced signaling through Notch1
Assay: Co-culture Notch reporter (luciferase) assay, Jagged1-induced
Format: cell-based
Conditions: NIH-3T3 co-culture; antibody 0.4-50 μg/ml (Example 4) or 0.016-50 μg/ml (Example 5)
Protocol: To determine whether anti-Jagged antibodies can act as antagonists of Jagged-induced Notch signaling, co-culture experiments were performed essentially as described by Wu et al., Nature 464, 1052-1057 (15 April 2010). NIH-3T3 cells engineered to express Jagged1, as the Notch ligand, were co-cultured with NIH 3T3 cells that stably express Notch1 and that were transiently transfected to express a Notch-responsive TP-1 (12× CSL) firefly luciferase reporter and a constitutively expressed Renilla luciferase reporter (pRL-CMV, Promega).
Antibodies C and D, and their respective affinity-matured descendants, bind to both human and murine Jagged1, and human and murine Jagged2 (e.g., FIG. 10A). […] Signaling was induced by Jagged1 (FIG. 13B, dark gray columns) or by Jagged2 (FIG. 13B, light gray columns) and inhibition was determined as described in Example 4 using the antibodies at concentrations of 0.016-50 μg/ml. Controls included cultures that were not stimulated with ligand and not treated with antibody ([…], Untreated), not stimulated with ligand (FIG. 13B, No Stimulation or 3T3P), treated with 5-10 μg/ml isotype control antibody (FIG. 13B, agD or gD), stimulated with ligand but not treated with antibody (Stim/no AB or No Ab), treated with 5 μM of the gamma-secretase inhibitor DAPT or the DAPT vehicle control of DMSO.

Q: C[C@H](NC(=O)Cc1cc(F)cc(F)c1)C(=O)N[C@H]1N=C(c2ccccc2)c2ccccc2N(C)C1=O [Compound E] was tested. Which “inhibition of Jagged1-induced Notch reporter expression” value did it give?
A: reduced to background levels
